Data as given in patent US5530126A, “Process for the preparation of substituted 6-(pyrazol-3yl)-1,4-benzoxazin-3-ones” (Monsanto Company, priority 1994, dated 1996).

What was measured:
Format in all cases: in vivo
Annual bluegrass [1] = experiment: Pre-emergence herbicide test; conditions: 1.12 kg/ha, read-out: % plant inhibition (Anbg)
Procedure, shortened: (§1)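 In this greenhouse test, seeds on compacted topsoil receive the active ingredient in an organic solvent or aqueous carrier, are covered with untreated soil and watered from below; percent inhibition is scored approximately 11 days later.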

Barnyardgrass [2] = experiment: Pre-emergence herbicide test; conditions: Echinochloa crus-galli, 1.12 kg/ha, read-out: % plant inhibition (Bygr)
Procedure, shortened: as §1

Cocklebur [3] = experiment: Pre-emergence herbicide test; conditions: Xanthium strumarium, 1.12 kg/ha, read-out: % plant inhibition (Cobu)
Procedure, shortened: as §1

Downy Brome [4] = experiment: Pre-emergence herbicide test; conditions: Bromus tectorum, 1.12 kg/ha, read-out: % plant inhibition (Dobr)
Procedure, shortened: as §1

Indian Mustard [5] = experiment: Pre-emergence herbicide test; conditions: Brassica juncea, 1.12 kg/ha, read-out: % plant inhibition (Inmu)
Procedure, shortened: as §1

Morningglory [6] = experiment: Pre-emergence herbicide test; conditions: Ipomoea, 1.12 kg/ha, read-out: % plant inhibition (Mogl)
Procedure, shortened: as §1

Seedling johnsongrass [7] = experiment: Pre-emergence herbicide test; conditions: Sorghum halepense, 1.12 kg/ha, read-out: % plant inhibition (Sejg)
Procedure, shortened: as §1

Velvetleaf [8] = experiment: Pre-emergence herbicide test; conditions: Abutilon theophrasti, 1.12 kg/ha, read-out: % plant inhibition (Vele)
Procedure, shortened: as §1

Wild buckwheat [9] = experiment: Pre-emergence herbicide test; conditions: Fallopia convolvulus, 1.12 kg/ha, read-out: % plant inhibition (Wibw)
Procedure, shortened: as §1

Yellow nutsedge [10] = experiment: Pre-emergence herbicide test; conditions: Cyperus, 1.12 kg/ha, read-out: % plant inhibition (Yens)
Procedure, shortened: as §1

Annual bluegrass [11] = experiment: Post-emergence herbicide test; conditions: 1.12 kg/ha, read-out: % plant inhibition (Anbg)
Procedure, shortened: (§2)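 Plants grown from seed or vegetative propagules in greenhouse soil pans were sprayed at two to three weeks of age by atomizer at 170.3 kPa, delivering 1870 L/Ha containing about 0.4% v/v emulsifier. Injury versus untreated controls was scored as percent inhibition at about 11 days, sometimes again near 25 days.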

Barnyardgrass [12] = experiment: Post-emergence herbicide test; conditions: Echinochloa crus-galli, 1.12 kg/ha, read-out: % plant inhibition (Bygr)
Procedure, shortened: as §2

Cocklebur [13] = experiment: Post-emergence herbicide test; conditions: Xanthium strumarium, 1.12 kg/ha, read-out: % plant inhibition (Cobu)
Procedure, shortened: as §2

Downy Brome [14] = experiment: Post-emergence herbicide test; conditions: Bromus tectorum, 1.12 kg/ha, read-out: % plant inhibition (Dobr)
Procedure, shortened: as §2

Indian Mustard [15] = experiment: Post-emergence herbicide test; conditions: Brassica juncea, 1.12 kg/ha, read-out: % plant inhibition (Inmu)
Procedure, shortened: as §2

Morningglory [16] = experiment: Post-emergence herbicide test; conditions: Ipomoea, 1.12 kg/ha, read-out: % plant inhibition (Mogl)
Procedure, shortened: as §2

Seedling johnsongrass [17] = experiment: Post-emergence herbicide test; conditions: Sorghum halepense, 1.12 kg/ha, read-out: % plant inhibition (Sejg)
Procedure, shortened: as §2

Velvetleaf [18] = experiment: Post-emergence herbicide test; conditions: Abutilon theophrasti, 1.12 kg/ha, read-out: % plant inhibition (Vele)
Procedure, shortened: as §2

Wild buckwheat [19] = experiment: Post-emergence herbicide test; conditions: Fallopia convolvulus, 1.12 kg/ha, read-out: % plant inhibition (Wibw)
Procedure, shortened: as §2

Yellow nutsedge [20] = experiment: Post-emergence herbicide test; conditions: Cyperus, 1.12 kg/ha, read-out: % plant inhibition (Yens)
Procedure, shortened: as §2

[21] = test system: resistant broadleaf weeds such as pigweed, cocklebur, velvetleaf and hemp sesbania; experiment: Control of resistant broadleaf weeds in crops; conditions: in various crops such as corn, soybean and nuts and in forestry

Row | SMILES | inhibition at 1120 g/ha (Annual bluegrass [1]) | inhibition at 1120 g/ha (Barnyardgrass [2]) | inhibition at 1120 g/ha (Cocklebur [3]) | inhibition at 1120 g/ha (Downy Brome [4]) | inhibition at 1120 g/ha (Indian Mustard [5]) | inhibition at 1120 g/ha (Morningglory [6]) | inhibition at 1120 g/ha (Seedling johnsongrass [7]) | inhibition at 1120 g/ha (Velvetleaf [8]) | inhibition at 1120 g/ha (Wild buckwheat [9]) | inhibition at 1120 g/ha (Yellow nutsedge [10]) | inhibition at 1120 g/ha (Annual bluegrass [11]) | inhibition at 1120 g/ha (Barnyardgrass [12]) | inhibition at 1120 g/ha (Cocklebur [13]) | inhibition at 1120 g/ha (Downy Brome [14]) | inhibition at 1120 g/ha (Indian Mustard [15]) | inhibition at 1120 g/ha (Morningglory [16]) | inhibition at 1120 g/ha (Seedling johnsongrass [17]) | inhibition at 1120 g/ha (Velvetleaf [18]) | inhibition at 1120 g/ha (Wild buckwheat [19]) | inhibition at 1120 g/ha (Yellow nutsedge [20]) | also measured
1 | CC(C)OC(=O)c1cc(-c2nn(C)c(C(F)(F)F)c2Cl)c(F)cc1Cl [Compound 135, 2-chloro-5-[4-chloro-1-methyl-5-(trifluoromethyl)-1H-pyrazol-3-yl]-4-fluorobenzoic acid, 1-methylethyl ester] | 100% | 100% | 90% | 100% | 100% | 90% | 100% | 100% | 100% | 0% | 100% | 100% | 100% | 100% | 100% | 100% | 100% | 100% | 100% | 20% | control of resistant broadleaf weeds [21]: outstanding control
2 | COC(=O)C(C)OC(=O)c1cc(-c2nn(C)c(C(F)(F)F)c2Cl)c(F)cc1Cl (stereo not drawn) [Compound 137, 2-Chloro-5-(4-chloro-1-methyl-5-(trifluoromethyl)-1H-pyrazol-3-yl)-4-fluorobenzoic acid, 2-methoxy-1-methyl-2-oxoethyl ester] | 70% | 70% | 100% | 80% | 100% | 100% | 50% | 100% | 90% | 20% | 100% | 100% | 100% | 100% | 100% | 100% | 100% | 100% | 100% | 20% | control of resistant broadleaf weeds [21]: outstanding control
3 | CC(C)OC(=O)COc1cc(-c2nn(C)c(C(F)(F)F)c2Cl)c(F)cc1Cl [Compound 282, (2-Chloro-5-(4-chloro-1-methyl-5-(trifluoromethyl)-1H-pyrazol-3-yl)-4-fluorophenoxy)acetic acid, 1-methylethyl ester] | 20% | 20% | 30% | 20% | 30% | 90% | 30% | 100% | 90% | 40% | 0% | 30% | 100% | 0% | 10% | 70% | 20% | 100% | 100% | 10% | control of resistant broadleaf weeds [21]: outstanding control
